# Measured values reported in patent US8961680B2, “Solvent formulations” (TBF Environmental Technology Inc., priority 2013, dated 2015).
# Tests used:
# [1] = single components, MEK, acetone; cited from earlier work
# [2] = Hansen solubility parameters of blends, single components, MEK and acetone; conditions: MEK, acetone, δ^2 = δD^2 + δP^2 + δH^2
# Source text: In some embodiments, a solvent composition according to the present disclosure includes an acetate ester, such as MA, EA, or TBAc, in combination with additional reagents to increase dispersion and decrease hydrogen bonding and/or to decrease the polarity of the composition. […] Accordingly, in some embodiments, a solvent composition according to the present disclosure may be formulated according to Hansen solubility parameters (HSP) (Hansen, 1999) and may have: a dispersion parameter (δD) between about 7.7 and about 8.5; a polarity parameter (δP) between about 4 and about 5.2; and a hydrogen bonding parameter (δH) between about 3.0 and about 3.6. Such parameters result in a Hansen Solubility Parameter (δ MPa) of about 9.0 to about 10.4, where δ^2=δD^2+δP^2+δH^2.
# In alternative embodiments, a solvent composition according to the present disclosure may have: a dispersion parameter (δD) between about 7.5 and about 8; a polarity parameter (δP) between about 3 and about 4; and a hydrogen bonding parameter (δH) between about 3.2 and about 4. Such parameters result in a Hansen Solubility Parameter (δ MPa) of about 8.68 to about 9.79, where δ^2=δD^2+δP^2+δH^2. In some embodiments, a solvent composition according to the present disclosure includes a composition with HSP values similar to those of acetone. […]
# [3] = Evaporation rate relative to n-butyl acetate (=1); assay type: physicochemical; conditions: Example 2
# Source text: Evaporation rates can be expressed relative to the evaporation of n-butyl acetate (=1), as a standard.
# [4] = reference solvents; cited from earlier work
# [5] = published value; cited from earlier work
# [6] = cited from earlier work
smiles,measurement,setting,value
"COC(=O)OC [DMC, dimethyl carbonate]",δD (dispersion),[1],8.5
same,δH (hydrogen bonding),[1],1.9
same,δP (polarity),[1],4.7
"CCOC(C)=O [Ethyl acetate, ethyl acetate]",δD (dispersion),[1],7.7
same,δH (hydrogen bonding),[1],3.5
same,δP (polarity),[1],2.3
"CC(=O)OC(C)(C)C [TBA, tert-butyl acetate]",δ (MPa),[2],7.765 MPa
same,δD (dispersion),[1],7
same,δH (hydrogen bonding),[1],2.9
same,δP (polarity),[1],1.7
"CCC(C)=O [MEK, methyl ethyl ketone, reference compound]",evaporation rate,[3],3.8
same,δD (dispersion),[1],7.82
same,δH (hydrogen bonding),[1],2.49
same,δP (polarity),[1],4.4
same,flash point,[4],−9 °C
same,published MEK ER,[5],4.0
"COC(C)=O [Methyl acetate, methyl acetate]",δD (dispersion),[1],7.58
same,δH (hydrogen bonding),[1],3.72
same,δP (polarity),[1],3.52
same,flash point,[4],−4 °C
same,solubility in water,[6]; room temperature,25%
same,stability,[6]; strong aqueous bases or aqueous acids,not stable
"CC1COC(=O)O1 (stereo not drawn) [PC, propylene carbonate]",δD (dispersion),[1],9.8
same,δH (hydrogen bonding),[1],2
same,δP (polarity),[1],8.8
"FC(F)(F)c1ccc(Cl)cc1 [PCBTF, parachlorobenzotrifluoride]",δD (dispersion),[1],8.8
same,δH (hydrogen bonding),[1],1.9
same,δP (polarity),[1],2.9
"CC(C)=O [Acetone, acetone, reference compound]",δ (MPa),[2],9.929 MPa
same,δD (dispersion),[1],7.7
same,δH (hydrogen bonding),[1],3.5
same,δP (polarity),[1],5.2
same,flash point,[4],−20 °C
